Laboratory results published in patent US4198504A, “[3-(Pyridinium)-7-(naphthyiridinyl carbonylamino)acetamido]cephalosporanic acid derivatives” (Bristol-Myers Company, priority 1978, dated 1980).
Read-outs that look alike come from different tables or passages of the source.

Tests used:
Ps. aeruginosa = assay: In vitro MIC, serial two-fold agar dilution, primary evaluation Ps (6 strains); format: cell-based; settings: CBPC = 100%, geometric mean of MICs
Experimental: (§1) Minimun inhibitory concentrations (MIC) were determined by the serial two-fold agar dilution method using Steers' apparatus on Mueller-Hinton agar plate against 31 test organisms for the primary screening and also against 64 strains of Pseudomonas aeruginosa for the secondary evaluation. The results are shown in Table 1 in terms of relative activity with respect to the standard compound CBPC (carbenicillin) which was set at 100%. In each group the calculation was based on the geometric mean of the observed MICs.
Ps. = Ps. aeruginosa (6).

Pseudomonas aeruginosa = assay: In vitro MIC, serial two-fold agar dilution, secondary evaluation against Pseudomonas aeruginosa strains; format: cell-based; settings: CBPC = 100%, geometric mean of MICs
Experimental: as §1

[1] = system: Ent. cloacae (3), Pr. vulgaris (1), Pr. morganii (1), S. marcescen (1); assay: In vitro MIC, serial two-fold agar dilution, primary evaluation Gn-II (Ent. cloacae, Pr. vulgaris, Pr. morganii, S. marcescens); format: cell-based; settings: CBPC = 100%, geometric mean of MICs
Experimental: as §1
GnII = Ent. cloacae (3), Pr. vulgaris (1), Pr. morganii (1), S. marcescen

[2] = system: E. coli (9), Klebsiella sp. (2), Pr. mirabilis (1), Sal. enteritidis (1); assay: In vitro MIC, serial two-fold agar dilution, primary evaluation Gn-I (E. coli, Klebsiella sp., Pr. mirabilis, Sal. enteritidis); format: cell-based; settings: CBPC = 100%, geometric mean of MICs
Experimental: as §1
GnI = E. coli (9), Klebsiella sp. (2), Pr. mirabilis (1), Sal.

[3] = system: Staphylococcus aureus Smith; assay: In vivo efficacy, experimental infection in mice, intramuscular treatment, Staphylococcus aureus Smith; design: species or system Staphylococcus aureus (infected mice); settings: im, 120 h, read-out: PD50 Staphylococcus aureus Smith
Experimental: (§2) The in vivo efficacy was evaluated by intramuscular treatment against three kinds of experimental infection in mice.
(§3) The in vivo tests were carried out using the following three pathogenic organisms:
Staphylococcus aureus Smith
(§4) Mice were challenged intraperitoneally with approximately a 100×LD50 dose of the pathogens in a 5% mucin suspension. The mice were treated with test compound by I.M. route immediately after the bacterial challenge.

[4] = Antibiotic blood levels in mice following intramuscular administration (paper disc-agar diffusion, Escherichia coli NIHJ as assay organism); format: in vivo; settings: mouse, im, I.M., 20 mg./kg.; for half-life: read-out: Blood level, Half-life; for Cmax: read-out: Blood level, Peak Concentration
Experimental: Antibiotic blood levels were determined in mice following intramuscular administration of the test compounds at 20 mg./kg. The blood samples were collected from the orbital sinuses into heparinized capillary tubes at 15, 30, 60 and 120 minutes after administration. The antibiotic concentration was determined by the paper disc-agar diffusion method using Escherichia coli NIHJ as the assay organism.

S. aureus = assay: In vitro MIC, serial two-fold agar dilution, primary evaluation Gp (S. aureus, 6 strains); format: cell-based; settings: CBPC = 100%, geometric mean of MICs
Experimental: as §1
*GP = S. aureus (6 strains);

Escherichia coli Juhl = assay: In vivo efficacy, experimental infection in mice, intramuscular treatment, Escherichia coli Juhl; design: species or system Escherichia coli (infected mice); settings: im, 120 h, read-out: PD50 Escherichia coli Juhl
Experimental: as §2, §3, §4

[5] = system: Pseudomonas aeruginosa A9843; assay: In vivo efficacy, experimental infection in mice, intramuscular treatment, Pseudomonas aeruginosa A9843; design: species or system Pseudomonas aeruginosa (infected mice); settings: A9843, im, 120 h, read-out: PD50 Pseudomonas aeruginosa A9843
Experimental: as §2, §3
Pseudomonas aeruginosa A9843
as §4

[6] = I.M., 100×LD50 challenge i.p., 5 days

Structure (SMILES) | In vitro relative activity, primary evaluation Ps (6) (Ps. aeruginosa; Mueller-Hinton agar) [%] | In vitro relative activity, secondary, Pseudomonas aeruginosa (61-64) (Pseudomonas aeruginosa; 61-64 strains) [%] | In vitro relative activity, primary evaluation Gn-II (6) ([1]; Mueller-Hinton agar) [%] | In vitro relative activity, primary evaluation Gn-I (13) ([2]; Mueller-Hinton agar) [%] | ED50 [3, 6] [mg/kg] | half-life [4] [min] | Cmax [4] [ng/mL] | In vitro relative activity, primary evaluation Gp (6) (S. aureus; Mueller-Hinton agar) [%] | ED50 (Escherichia coli Juhl; [6]) [mg/kg] | ED50 [5, 6] [mg/kg] | In vitro relative activity, primary evaluation Ps (6) (Ps. aeruginosa; Lot 2) [%] | In vitro relative activity, secondary, Pseudomonas aeruginosa (61-64) (Pseudomonas aeruginosa; Lot 2) [%] | In vitro relative activity, primary evaluation Gn-II (6) ([1]; Lot 2) [%] | In vitro relative activity, primary evaluation Gn-I (13) ([2]; Lot 2) [%] | ED50 ([3]; Lot 2, I.M.) [mg/kg] | In vitro relative activity, primary evaluation Gp (6) (S. aureus; Lot 2) [%] | ED50 (Escherichia coli Juhl; Lot 2, I.M.) [mg/kg] | ED50 ([5]; Lot 2, I.M.) [mg/kg]
O=C(O)C=Cc1ccc[n+](CC2=C(C(=O)[O-])N3C(=O)C(NC(=O)[C@H](NC(=O)c4cnc5cccnc5c4O)c4ccccc4)C3SC2)c1 (stereo partly drawn) [BB-S603, 7-[D-α-(4-Hydroxy-1,5-naphthyridine-3-carboxamide)-α-phenyl-acetamido]-3-(3-carboxyvinylpyridinium)methyl-3-cephem-4-carboxylate] | 1150 | 1270 | 38 | 80 | 1.15 | 44 | 9000 | 73 | 2.2 | 18 | – | – | – | – | – | – | – | –
O=C([O-])C1=C(C[n+]2ccc(CCS(=O)(=O)O)cc2)CSC2C(NC(=O)[C@H](NC(=O)c3cnc4cccnc4c3O)c3ccc(O)c(Cl)c3)C(=O)N12 (stereo partly drawn) [BB-S605, 7-[D-α-(4-Hydroxy-1,5-naphthyridine-3-carboxamido)-α-(3-chloro-4-hydroxyphenyl)acetamido]-3-(4-sulfoethylpyridinium)-methyl-3-cephem-4-carboxylate] | 1310 | 1300 | 40 | 83 | 3.1 | 54 | 9400 | 40 | 3.1 | 8.4 | – | – | – | – | – | – | – | –
O=C([O-])C1=C(C[n+]2cccc(S(=O)(=O)O)c2)CSC2C(NC(=O)[C@H](NC(=O)c3cnc4cccnc4c3O)c3ccc(O)cc3)C(=O)N12 (stereo partly drawn) [BB-S587, 7-[D-α-(4-Hydroxy-1,5-naphthyridine-3-carboxamido)-α-(4-hydroxyphenyl)acetamido]-3-(3-sulfopyridinium)methyl-3-cephem-4-carboxylate] | 2378 | 3380 | 16 | 166 | – | 40 | 3000 | 28 | – | 3.13 | 3200 | 3570 | 19 | 87 | 3.7 | 56 | 2.4 | 2.2
NC(=O)c1cc[n+](CC2=C(C(=O)[O-])N3C(=O)C(NC(=O)[C@H](NC(=O)c4cnc5cccnc5c4O)c4ccc(O)cc4)C3SC2)cc1C(=O)O (stereo partly drawn) [BB-S592, 7-[D-α-(4-Hydroxy-1,5-naphthyridine-3-carboxamido)-α-(4-hydroxyphenyl)acetamido]-3-(4-carbamoyl-3-carboxypyridinium)methyl-3-cephem-4-carboxylate] | 594 | 695 | 11 | 121 | 4.6 | 55 | 12000 | 56 | 6.25 | 38 | – | – | – | – | – | – | – | –
O=C(O)Cc1ccc[n+](CC2=C(C(=O)[O-])N3C(=O)C(NC(=O)[C@H](NC(=O)c4cnc5cccnc5c4O)c4ccc(O)cc4)C3SC2)c1 (stereo partly drawn) [BB-S580, 7-[D-α-(4-Hydroxy-1,5-naphthyridine-3-carboxamido)-α-(4-hydroxyphenyl)acetamido]-3-(3-carboxymethylpyridinium)methyl-3-cephem-4-carboxylate] | 2490 | 1780 | 33 | 359 | 2.6 | 33 | 16500 | 27 | 1.2 | 6.4 | – | – | – | – | – | – | – | –
O=C(O)C=Cc1ccc[n+](CC2=C(C(=O)[O-])N3C(=O)C(NC(=O)[C@H](NC(=O)c4cnc5cccnc5c4O)c4ccc(O)c(O)c4)C3SC2)c1 (stereo partly shown) [BB-S610] | 656 | 491 | 14 | 57 | 17 | 60 | 6200 | 16 | 1.8 | 2.8 | – | – | – | – | – | – | – | –
O=C([O-])C1=C(C[n+]2cccc(C(=O)O)c2)CSC2C(NC(=O)[C@H](NC(=O)c3cnc4cccnc4c3O)c3ccc(O)cc3)C(=O)N12 (stereo partly shown) [BB-S579] | 2880 | 2780 | 22 | 230 | 2 | 75 | 12000 | 28 | 1.8 | 6.4 | – | – | – | – | – | – | – | –
O=C([O-])C1=C(C[n+]2cccc(S(=O)(=O)O)c2)CSC2C(NC(=O)[C@H](NC(=O)c3cnc4cccnc4c3O)c3ccccc3)C(=O)N12 (stereo partly drawn) [BB-S607, 7-[D-α-(4-Hydroxy-1,5-naphthyridine-3-carboxamido)-α-phenylacetamido]-3-(3-sulfopyridinium)methyl-3-cephem-4-carboxylate] | 883 | 695 | 13 | 24 | 4.5 | 60 | 10000 | 35 | – | 23 | – | – | – | – | – | – | – | –
O=C(O)CSc1cc[n+](CC2=C(C(=O)[O-])N3C(=O)C(NC(=O)[C@H](NC(=O)c4cnc5cccnc5c4O)c4ccc(O)c(Cl)c4)C3SC2)cc1 (stereo partly drawn) [BB-S621, 7-[D-α-(4-Hydroxy-1,5-naphthyridine-3-carboxamido)-α-(3-chloro-4-hydroxyphenyl)acetamido]-3-[4-(carboxymethylthio)-pyridinium]methyl-3-cephem-4-carboxylate] | 800 | 1400 | 18 | 121 | – | 54 | 10000 | 20 | 2.4 | 4.6 | – | – | – | – | – | – | – | –
